“Also recorded” adds a separate entry of the source. Where two headings read alike, the source gives them in different places.
Experiments:
9L-lacZ cells = assay: Bystander cytotoxicity in co-culture with lacZ-marked 9L cells; type: cell-based, rat; settings: 1 mM CPA, 5 days
Method: CYP2B1^+ cells (FIG. 6A) and CYP2B1^+ RED^++ cells (FIG. 6C) were mixed with equal numbers of lacZ-marked 9L cells and cultured in the absence (FIGS. 6A and 6C) or in the presence (FIGS. 6B and 6D) of 1 mM CPA. Shown are 0.5% glutaraldehyde-fixed cells, 5 days after beginning drug treatment, stained with X-Gal for 4 hours to visualize the 9L-lacZ cells (dark staining).

CYP2B1 = assay: Fluorometric assay of 4-hydroxy-CPA in culture medium of 9L tumor cells (Example 1); type: in vitro ADME, rat; settings: 2 mM CPA, 24 h
Method: FIG. 7 is a bar graph showing that higher 4-hydroxy-CPA levels are produced by P450 and RED-containing tumor cells compared to tumor cells containing P450 alone. The parental CYP2B1^+ cell lines P3 and P17, and their corresponding RED overexpressing derivatives PR11 and PR7 were plated confluent (1.5×10^6 cells per 30 mm culture dish) so that the cell number remained relatively constant during the course of the experiment. Cells were incubated for 24 hours with 2 mM CPA in the presence of 5 mM semicarbazide. Medium was collected and then assayed for 4-hydroxy-CPA using a fluorometric assay, as described below in the "Materials and Methods" section of Example 1. Limit of detection in this assay was approximately 1 μM 4-hydroxy-CPA. The higher CPA 4-hydroxylase activity of line P 17 compared to line P3 is consistent both with the higher cytotoxic potential of CPA-conditioned media from P17 cells (FIG. 5), and with the greater cytotoxicity of CPA toward the P 17 cells in vitro (FIGS. 2, 3) and in vivo (FIG. 9, below).

[1] = system: human P450 genes expressed in 9L cells; assay: Semicarbazide trapping/fluorescence assay for 4-hydroxy metabolites in 9L/P450 cells; type: in vitro ADME; settings: 2 mM, 24 h
Method: Each of the indicated 9L cell lines was seeded on a 48-well plate in duplicate at 2×10^4 cells/well. […] Background fluorescence observed in 9L/Babe cells was subtracted from each sample.
Semicarbazide trapping/fluorescence assay for 4-hydroxy metabolites: 9L/P450 cells were seeded on a 48 well plate in duplicate at 2×10^4 cells/ well. […] Culture media, 400 μl, was removed and then treated with 160 μl of ice cold 5.5% (w/v) ZnSO4, 160 μl ice cold saturated Ba(OH)2, and 80 μl ice cold 0.01 M HCl. The mixture was vortexed and then centrifuged at 16,000 g for 15 minutes. 300 μl of the supernatant was transferred under dim light to a clean tube containing 540 μl of water and 160 μl of freshly prepared fluorescent reagent (60 mg 3-aminophenol and 60 mg hydroxylamine-HCl per 10 ml of 1 M HCl). The tubes were vortexed and heated at 90° C. for 20 minutes. Fluorescent readings were obtained at 350 nm (excitation), and 515 nm (emission) using 800 μl of each sample. Fluorescent values were converted to nmol 4-hydroxy metabolite/ml of original culture media based on standard curves generated using 4-hydroperoxy-CPA and then normalized to units of nmol 4-hydroxy metabolite formed per 24 hours per 10^6 cells.

9L/pBabe bystander cells = assay: Bystander cytotoxicity/co-culture with cell culture inserts; type: cell-based, rat; settings: for cytotoxicity at 670 µM: Rattus norvegicus, 96 h, 9L/2B6/reductase, 0.67 mM
Method: FIGS. 18A and 18B are graphs depicting the bystander cytotoxicity of 9L/2B6/reductase and 9L/2B6 cells. In FIG. 18A, bystander cytotoxicity of 9L/2B6/reductase cells is compared to that of 9L/2B6 cells. In both cases, 9L/pBabe served as the bystander cells. 9L/pBabe cells were plated in duplicate at 10^5 cells/well of a 6-well plate (lower chamber). 9L/2B6/reductase cells or 9L/2B6 cells were plated in 25 mm cell culture inserts (upper chamber) at concentrations ranging from 10^4 to 6×10^5 cells, corresponding to ratios of 0.1 to 6 relative to the bystander 9L/pBabe cells growing in the lower chamber, as shown on the x-axis. Cells were incubated in a total volume of 3 ml Dulbecco's minimal essential medium (DMEM), 10% FBS, containing 1 mM CPA, final CPA concentration.
The experimental design was the same as in FIG. 18A, except that the final drug concentration was 0.67 mM. Data shown for both panels correspond to the survival of 9L/pBabe bystander cells in the lower chamber.
Bystander cytotoxicity/co-culture experiments: 9L/pBabe cells were plated in duplicate at 10^5 cells/well in the lower chamber of a 6-well Falcon co-culture plate (30 mm diameter wells) (Falcon 3046). 9L/2B6/reductase cells were plated in 25 mm cell culture inserts (0.4 μm pore size; Falcon 3090), at dilutions ranging from 0. 1 to 6 times the number of 9L/pBabe cells plated in the lower chamber. […] Relative cell numbers were quantitated 4 days later by crystal violet staining.

[2] = system: 9L/pBabe, 9L/2B6/reductase and 9L/2C18-Met/reductase tumors in scid mice; assay: Tumor growth delay assay in scid mice; type: in vivo, mouse
Text: FIGS. 19A-19D are graphs depicting the results of a tumor growth delay assay in severe combined immunodeficiency (scid) mice bearing 9L/pBabe, 9L/2B6/reductase, and 9L/2C18-Met/reductase solid tumors. Shown are the effects of CPA treatment on growth of 9L/pBabe tumors growing on the left flank of scid mice that also bear either a 9L/2B6/reductase tumor (FIG. 19A) or a 9L/2C18-Met/reductase tumor ((FIG. 19C)) on the right flank. Also shown are the effects of CPA on growth of 9L/2B6/reductase (FIG. 19B) or 9L/2C18-Met/reductasetumors ((FIG. 19D)) in these same mice. Tumor areas were measured twice a week with Vernier calipers. The arrows above the x-axis in each panel indicate the days on which CPA was given by intraperitoneal (i.p.) injection at 150 mg/kg, as described in the "Materials and Methods" section of Example 2. Data shown is mean tumor area (mm^2)±SEM for n=4 tumors per treatment group. Mice not treated with CPA died earlier than the CPA-treated mice, as indicated by the earlier decrease in number of remaining mice from n =4 (initial number of mice/group) to n=3, 2, or 1. Open circles indicate CPA-treated mice; closed circles indicate saline controls.
Tumor Growth Delay Assay: Six week old male ICR/Fox Chase/outbred immunodeficient scid mice (Paine-Murrieta, G. D., et al., Cancer Chemother Pharmacol. 40:209-214 (1997)) (Taconic Farms, Germantown, N.Y.) weighing 26-31g were given subcutaneous tumor cell injections to form solid tumors. Tumor cells were grown in culture to approximately 75% confluency, harvested by trypsin digestion, washed in PBS, resuspended in fetal bovine serum-free DMEM at a concentration of 8×10^6 cells/ml and kept on ice. Mice were shaved on both hind flanks, and then were injected subcutaneously on the left flank with 4×10^6 9L/pBabe tumor cells, and on the right flank with 4×10^6 of either 9L/2B6/reductase or 9L/2C18-Met/reductase tumor cells (8 mice/group). Tumor cell injections were in a volume of 0.5 ml of serum-free DMEM using a 1/2 inch 27 g needle and 1 ml syringe. Tumor growth was monitored twice a week using Vernier calipers (Manostat Corp., Switzerland) to measure tumor area. On days 26 and 27 after tumor cell inoculation, 4 animals from each group (four 9L/pBabe:9L/2B6/reductase mice and four 9L/pBabe:9L/2C18-Met/reductase mice) received daily intraperitoneal injections of CPA at 150 mg/kg dissolved in 0.3 ml of 0.9% NaCl. The remaining animals received saline injections. Average tumor areas ranged from 80-145 mm^2 at the time of CPA injection. Mice were given a second course of CPA treatment (150 mg/kg×2 daily injections) beginning 24-29 days after the first CPA injection, as indicated in each experiment.

Structure (SMILES): O=P1(N(CCCl)CCCl)NCCCO1 (stereo not drawn) [CPA, cyclophosphamide]
- bystander cytotoxicity of CYP2B1+ 9L cells toward CYP2B1- 9L cells (9L-lacZ cells): substantial, albeit incomplete, bystander cytotoxicity
- bystander killing of 9L/lacZ cells by co-culture with CYP2B1+ RED+++ cells (9L-lacZ cells): near complete killing
- elimination of CYP2B1+ and CYP2B1+ RED+++ cells (9L-lacZ cells; unstained cells): essentially eliminated
- 4-hydroxylated metabolites in 9L parental cells (CYP2B1): corresponds to the limit of detection
- levels of 4-hydroxy-CPA formed by CYP2B1+ RED+++ vs parental CYP2B1+ cell lines (CYP2B1; 5 mM semicarbazide): up to 3 fold
- effect of RED transduction on drug activation in 9L parental cells [1]: did not stimulate drug activation
- effect of RED transduction on cytotoxic metabolites accumulating in the culture medium ([1]; CYP2B6 and CYP2C18-Met cells): significant increase in cytotoxic metabolites
- bystander killing of 9L/pBabe cells by 9L/2B6/reductase vs 9L/2B6 cells (9L/pBabe bystander cells; 1 mM CPA, cell ratio for 50% bystander cytotoxicity): approximately 3 fold
- bystander cytotoxic effect on non-P450-expressing 9L cells (9L/pBabe bystander cells; 2B6 and RED-transduced tumor cells): strong cell contact-independent bystander cytotoxic effect; also recorded: striking bystander cytotoxic effect
- cytotoxicity at 670 µM (9L/pBabe bystander cells; P450:non-P450 ratio approximately 0.5-1, read-out: bystander toxicity toward non-P450 tumor cells): ~40%
- cytotoxicity at 670 µM (9L/pBabe bystander cells; cell ratio >3, read-out: bystander toxicity toward non-P450 cells): ≥ 80%
- growth delay of 2B6 and P450 reductase-transduced tumors ([2]; 150 mg/kg i.p.): > 50 days
- growth inhibition of 9L/2C18-Met/reductase tumors ([2]; 150 mg/kg i.p.): significant, albeit incomplete growth inhibition
- growth delay for 9L/pBabe tumors ([2]; 2B6 experiment, first cycle 150 mg/kg i.p. x2, days 26 and 27): no growth delay
- growth delay effect against 9L/pBabe control tumors ([2]; 2B6 experiment, second cycle): modest growth delay effect
- growth delay of 9L/pBabe control tumors ([2]; 2C18-Met experiment): 5-6 days
- growth delay in RED tumors ([2]; 9L/2B6/RED and 9L/2C18-Met/RED): 25 to 50 days
- host toxicity ([2]; CPA-treated scid mice): no apparent increase in host toxicity
- growth delay without P450 ([2]; control 9L tumors): 5 to 6 days
- growth of 9L/2B6/reductase tumors ([2]; first cycle 150 mg/kg i.p. x2): fully blocked
- duration of anti-tumor effect in 9L/2B6/reductase tumors ([2]; second cycle): ≥ 75 day after tumor inoculation

From patent US6207648A, “Methods of using cytochrome P450 reductase for the enhancement of P450-based anti-cancer gene therapy” (priority 1998, dated 2001)
